We go through one compound from patent US10323254B2, “Method for regulating plant growth” (RIKEN, priority 2015, dated 2019).

This assay deals with BSS1-GFP. In words: Fluorescence microscopy of punctate BSS1-GFP in transgenic seedlings. In kind it is in vivo, Arabidopsis thaliana. Conditions: root cells of BSS1-GFP plants treated with 50 μM BFA for 1 hour. The method, then: FIGS. 5C to 5E show analysis of BSS1-GFP puncta signal intensities upon treatment with Brz and BL. Seven-day-old BSS1-GFP transgenic seedlings were treated for 3 hours with 3 μM Brz (Brz), an equal volume of DMSO (Mock), or 100 μM BL (BL). […] The results are represented as the mean±s.d. The signal intensity was measured using ImageJ software. […]
The plants that were transformed with the CaMV35S-BSS1-GFP construct BSS1(-GFP)-OX and the CaMV35S-BIL1-GFP construct BIL1-GFP-OX were observed via confocal laser scanning microscopy with a BX60 fluorescence microscope (Olympus) equipped with a Model CSU10 confocal scanner (Yokogawa Electric) and LSM700 (Zeiss).
FM4-64 (Molecular Probes) dissolved in water was applied to Arabidopsis plants at a final concentration of 4 μM for 3 minutes. The plants were washed with water to remove the excessive amount of the stain and observed. A DMSO-base stock solution of Brefeldin A (BFA) (Sigma) was applied to the cells at a final concentration of 50 μM for 1 hour.
The images were analyzed using ImageJ software. To measure the ratio of the nuclear and cytosolic signals of BIL1-GFP for each cell, the signal intensities in the nucleus and cytosol were calculated from the mean of the intensity in each area. The nuclear to cytosolic signal ratio was then calculated for each cell. The average nuclear/cytosolic signal ratio and standard error were calculated from measurements of at least 54 cells from each line (FIG. 9B). Line scan measurements from the vacuole to the nucleus through the cytosol were performed, and representative plot profiles of sample measurements are presented in FIG. 5C.

Each structure is given as a SMILES string.

Turning to `C[C@H]1CCC/C=C/[C@@H]2C[C@H](O)C[C@H]2[C@H](O)/C=C/C(=O)O1` [BFA, Brefeldin A], the “formation of punctate BSS1” value was “not inhibited”.
